Measured values taken from patent publication US20230151003A1, “COMPOUNDS AND METHODS OF USE” (Exelixis, Inc., priority 2020, published 2023).
pIC50: −log10 of the molar value. Counter-ions that a name gives are not always drawn.

What was measured:
KDR = KDR (Homo sapiens, UniProt P35968); experiment: KDR autophosphorylation ELISA in HUVEC cells; assay type: cell-based; set-up: endogenous in cells; host or cells: HUVEC (Lonza #C2519A); conditions: Table 3 Cellular Activities, VEGF165-stimulated, phospho-KDR ELISA
Outline: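 HUVECs grown 24 h at 37 °C, then serum-starved 24 h, were preincubated 1 h with an 8-point compound series (0.3% DMSO) and stimulated with 100 ng/mL human VEGF165 for 5 min. Phospho-KDR in lysates was measured by sandwich ELISA against a phospho-KDR standard; IC50 from 4-parameter logistic fit.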

Met = Met (Homo sapiens, UniProt P08581); experiment: Met autophosphorylation ELISA in PC-3 cells; assay type: cell-based; set-up: endogenous in cells; host or cells: PC-3 prostate cancer cells (ATCC #CRL-1435); conditions: Table 3 Cellular Activities, HGF-stimulated, phospho-Met ELISA, read-out: c-Met IC50
Outline: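 Serum-starved (3 h) PC-3 cells pre-incubated 1 h with compound (8-point dose curve, 0.3% DMSO), then stimulated with 100 ng/mL recombinant human HGF for 10 min. Lysate phospho-Met (panTyr) measured by sandwich ELISA; IC50 from 4-parameter logistic fit, normalised to DMSO (100%) and reference-inhibitor (0%) controls.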

Sequence of Met (P08581 25-1390): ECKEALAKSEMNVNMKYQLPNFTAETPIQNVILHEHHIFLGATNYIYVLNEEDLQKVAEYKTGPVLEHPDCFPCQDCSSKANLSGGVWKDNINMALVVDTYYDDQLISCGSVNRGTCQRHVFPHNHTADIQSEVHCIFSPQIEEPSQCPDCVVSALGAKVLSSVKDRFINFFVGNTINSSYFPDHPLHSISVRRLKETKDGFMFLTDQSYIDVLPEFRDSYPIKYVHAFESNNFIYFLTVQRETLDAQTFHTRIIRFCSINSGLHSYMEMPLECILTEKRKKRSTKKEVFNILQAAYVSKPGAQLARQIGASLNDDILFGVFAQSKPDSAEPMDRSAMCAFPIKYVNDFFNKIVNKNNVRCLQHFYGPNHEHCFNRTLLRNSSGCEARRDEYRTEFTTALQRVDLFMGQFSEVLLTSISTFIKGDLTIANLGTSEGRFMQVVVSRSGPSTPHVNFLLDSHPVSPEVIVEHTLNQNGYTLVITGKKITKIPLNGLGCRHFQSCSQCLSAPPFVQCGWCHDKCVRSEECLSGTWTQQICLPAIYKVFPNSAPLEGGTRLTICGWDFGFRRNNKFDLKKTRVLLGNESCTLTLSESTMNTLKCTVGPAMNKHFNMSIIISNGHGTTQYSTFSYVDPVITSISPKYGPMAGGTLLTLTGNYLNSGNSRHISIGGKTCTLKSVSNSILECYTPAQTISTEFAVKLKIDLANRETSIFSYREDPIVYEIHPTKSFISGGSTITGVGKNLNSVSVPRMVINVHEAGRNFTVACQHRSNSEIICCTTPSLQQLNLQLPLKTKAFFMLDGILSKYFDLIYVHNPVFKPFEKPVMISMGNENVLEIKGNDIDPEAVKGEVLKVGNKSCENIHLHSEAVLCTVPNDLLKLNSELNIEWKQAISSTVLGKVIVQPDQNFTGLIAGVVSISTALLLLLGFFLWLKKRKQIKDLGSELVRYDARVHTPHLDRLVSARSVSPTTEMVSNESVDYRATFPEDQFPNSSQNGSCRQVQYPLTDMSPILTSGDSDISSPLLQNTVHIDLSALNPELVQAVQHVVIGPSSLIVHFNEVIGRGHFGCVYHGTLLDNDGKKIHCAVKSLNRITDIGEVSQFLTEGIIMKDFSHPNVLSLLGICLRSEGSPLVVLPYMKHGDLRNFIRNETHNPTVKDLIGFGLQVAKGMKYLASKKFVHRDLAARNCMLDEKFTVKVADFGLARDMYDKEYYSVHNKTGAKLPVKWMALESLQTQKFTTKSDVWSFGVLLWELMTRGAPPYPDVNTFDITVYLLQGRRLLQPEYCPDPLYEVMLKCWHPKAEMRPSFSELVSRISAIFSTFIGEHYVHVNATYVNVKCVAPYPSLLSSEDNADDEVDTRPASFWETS
Sequence of KDR (P35968 20-1356): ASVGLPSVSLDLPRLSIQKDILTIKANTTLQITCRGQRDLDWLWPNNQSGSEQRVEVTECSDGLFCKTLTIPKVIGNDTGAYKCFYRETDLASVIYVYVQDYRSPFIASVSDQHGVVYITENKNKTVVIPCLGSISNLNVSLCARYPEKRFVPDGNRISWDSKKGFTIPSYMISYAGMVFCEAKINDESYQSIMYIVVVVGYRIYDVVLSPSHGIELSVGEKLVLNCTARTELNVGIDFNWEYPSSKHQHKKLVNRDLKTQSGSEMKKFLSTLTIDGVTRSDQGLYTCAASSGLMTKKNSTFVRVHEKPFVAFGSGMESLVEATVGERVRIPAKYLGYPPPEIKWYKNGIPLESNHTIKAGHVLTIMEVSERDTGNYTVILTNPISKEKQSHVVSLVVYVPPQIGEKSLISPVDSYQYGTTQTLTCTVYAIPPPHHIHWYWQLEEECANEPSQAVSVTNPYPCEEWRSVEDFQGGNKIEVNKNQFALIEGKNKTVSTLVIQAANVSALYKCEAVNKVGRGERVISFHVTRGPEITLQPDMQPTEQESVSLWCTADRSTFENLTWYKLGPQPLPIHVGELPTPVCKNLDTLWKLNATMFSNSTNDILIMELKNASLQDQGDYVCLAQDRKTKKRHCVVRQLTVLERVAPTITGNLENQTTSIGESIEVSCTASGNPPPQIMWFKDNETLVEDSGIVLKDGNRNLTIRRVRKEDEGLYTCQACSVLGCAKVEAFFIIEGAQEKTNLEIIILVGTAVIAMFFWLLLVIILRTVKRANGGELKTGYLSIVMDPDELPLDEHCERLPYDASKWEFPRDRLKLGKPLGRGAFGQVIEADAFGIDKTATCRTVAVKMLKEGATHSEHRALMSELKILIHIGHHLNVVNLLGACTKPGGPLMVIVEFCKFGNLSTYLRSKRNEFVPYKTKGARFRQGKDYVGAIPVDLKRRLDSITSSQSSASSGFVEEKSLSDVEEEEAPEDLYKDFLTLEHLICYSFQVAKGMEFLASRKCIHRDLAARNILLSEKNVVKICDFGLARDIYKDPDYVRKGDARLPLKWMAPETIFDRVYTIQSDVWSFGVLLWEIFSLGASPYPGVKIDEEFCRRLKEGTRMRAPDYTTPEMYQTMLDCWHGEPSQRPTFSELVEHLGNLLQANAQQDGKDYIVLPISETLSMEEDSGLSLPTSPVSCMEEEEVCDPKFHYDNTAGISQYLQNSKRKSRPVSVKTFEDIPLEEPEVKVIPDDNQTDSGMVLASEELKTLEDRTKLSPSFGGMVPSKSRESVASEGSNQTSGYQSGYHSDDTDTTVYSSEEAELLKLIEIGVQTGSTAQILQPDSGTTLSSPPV

Row | SMILES | pIC50 (KDR) | pIC50 (Met)
1 | COc1cc2nccc(Oc3ccc(NC(=O)c4c5n(cc(-c6cc(C)cs6)c4=O)CCOC5)cc3)c2nc1OC [Compound 303, N-[4-[(6,7-Dimethoxy-1,5-naphthyridin-4-yl)oxy]phenyl]-7-(4-methylthiophen-2-yl)-8-oxo-3,4-dihydro-1H-pyrido[2,1-c][1,4]oxazine-9-carboxamide] | 6.00 to 6.52 | 6.52 to 7.00
2 | COc1cnc2c(Oc3ccc(NC(=O)c4ccc(C)n(-c5ncc(F)cc5C)c4=O)cc3F)ccnc2c1 [Compound 52, N-[3-Fluoro-4-[(7-methoxy-1,5-naphthyridin-4-yl)oxy]phenyl]-1-(5-fluoro-3-methylpyridin-2-yl)-6-methyl-2-oxopyridine-3-carboxamide] | ≥ 7.00 | ≥ 7.00
3 | COc1cc2nccc(Oc3ccc(NC(=O)c4nnc(C)c(-c5ccc(F)cn5)c4OC)cc3F)c2nc1OC [Compound 215, N-[4-[(6,7-Dimethoxy-1,5-naphthyridin-4-yl)oxy]-3-fluorophenyl]-5-(5-fluoropyridin-2-yl)-4-methoxy-6-methylpyridazine-3-carboxamide] | 6.00 to 6.52 | ≥ 7.00
4 | Cc1ccc(C(=O)Nc2ccc(Oc3ccnc4cnc(Cl)cc34)c(F)c2)c(=O)n1-c1ccc(F)cn1 [Compound 54A, N-[4-[(6-Chloro-1,7-naphthyridin-4-yl)oxy]-3-fluorophenyl]-1-(5-fluoropyridin-2-yl)-6-methyl-2-oxopyridine-3-carboxamide] | 6.52 to 7.00 | ≥ 7.00
5 | COCCOc1cc2nccc(Oc3ccc(NC(=O)c4ccc(C)n(-c5ccc(F)cn5)c4=O)cc3F)c2nc1OC [Compound 50, N-[3-Fluoro-4-[[6-methoxy-7-(2-methoxyethoxy)-1,5-naphthyridin-4-yl]oxy]phenyl]-1-(5-fluoropyridin-2-yl)-6-methyl-2-oxopyridine-3-carboxamide] | ≥ 7.00 | ≥ 7.00
6 | COc1cc2nccc(Oc3ccc(NC(=O)c4c(C)ncc(-c5ccccn5)c4O)cc3F)c2nc1OC [Compound 69, N-[4-[(6,7-Dimethoxy-1,5-naphthyridin-4-yl)oxy]-3-fluorophenyl]-4-hydroxy-2-methyl-5-pyridin-2-ylpyridine-3-carboxamide] | ≥ 7.00 | ≥ 7.00
7 | COc1cc2nccc(Oc3ccc(NC(=O)c4c(C)n(C)c(C)c(-c5cc6ccccc6o5)c4=O)cc3F)c2nc1OC [Compound 261, 5-(1-Benzofuran-2-yl)-N-[4-[(6,7-dimethoxy-1,5-naphthyridin-4-yl)oxy]-3-fluorophenyl]-1,2,6-trimethyl-4-oxopyridine-3-carboxamide] | 6.00 to 6.52 | 6.00 to 6.52
8 | COc1cc2nccc(Oc3ccc(NC(=O)c4ccc(C)n(-c5ccc(F)c(C)n5)c4=O)cc3F)c2nc1OC [Compound 227, N-[4-[(6,7-Dimethoxy-1,5-naphthyridin-4-yl)oxy]-3-fluorophenyl]-1-(5-fluoro-6-methylpyridin-2-yl)-6-methyl-2-oxopyridine-3-carboxamide hydrochloride] | ≥ 7.00 | ≥ 7.00
9 | CCOc1ccn(-c2ccc(F)cn2)c(=O)c1C(=O)Nc1ccc(Oc2ccnc3cc(OC)c(OC)nc23)cc1 [Compound 244, N-[4-[(6,7-Dimethoxy-1,5-naphthyridin-4-yl)oxy]phenyl]-4-ethoxy-1-(5-fluoropyridin-2-yl)-2-oxopyridine-3-carboxamide] | 6.00 to 6.52 | ≥ 7.00
10 | COc1cc2nccc(Oc3ccc(NC(=O)c4cccn(-c5ccnc(O)c5)c4=O)cc3F)c2nc1OC [Compound 248, N-[4-[(6,7-Dimethoxy-1,5-naphthyridin-4-yl)oxy]-3-fluorophenyl]-1-(2-hydroxypyridin-4-yl)-2-oxopyridine-3-carboxamide hydrochloride] | 6.00 to 6.52 | ≥ 7.00
11 | COc1cc2nccc(Oc3ccc(NC(=O)c4c5n(cc(-c6cccs6)c4=O)CCOC5)cc3F)c2nc1OC [Compound 309, N-[4-[(6,7-Dimethoxy-1,5-naphthyridin-4-yl)oxy]-3-fluorophenyl]-8-oxo-7-thiophen-2-yl-3,4-dihydro-1H-pyrido[2,1-c][1,4]oxazine-9-carboxamide] | 6.00 to 6.52 | ≥ 7.00

More lines, now with the values ahead:

Row | pIC50 (KDR) | pIC50 (Met) | SMILES
12 | 6.00 to 6.52 | ≥ 7.00 | COc1cc2nccc(Oc3ccc(NC(=O)c4cc(C(C)=O)c(C)n(-c5ccoc5)c4=O)cc3F)c2nc1OC [Compound 235, 5-Acetyl-N-[4-[(6,7-dimethoxy-1,5-naphthyridin-4-yl)oxy]-3-fluorophenyl]-1-(furan-3-yl)-6-methyl-2-oxopyridine-3-carboxamide]
13 | 6.00 to 6.52 | 6.00 to 6.52 | COc1cc2nccc(Oc3ccc(NC(=O)c4c5n(cc(-c6ccoc6)c4=O)CCOC5)cc3)c2nc1OC [Compound 310, N-[4-[(6,7-Dimethoxy-1,5-naphthyridin-4-yl)oxy]phenyl]-7-(furan-3-yl)-8-oxo-3,4-dihydro-1H-pyrido[2,1-c][1,4]oxazine-9-carboxamide]
14 | ≥ 7.00 | ≥ 7.00 | CCc1c(C(=O)Nc2ccc(Oc3ccnc4cc(OC)c(OC)nc34)c(F)c2)c(=O)c(-c2ccco2)c(C)n1C [Compound 324, N-[4-[(6,7-Dimethoxy-1,5-naphthyridin-4-yl)oxy]-3-fluorophenyl]-2-ethyl-5-(furan-2-yl)-1,6-dimethyl-4-oxopyridine-3-carboxamide]
15 | ≥ 7.00 | ≥ 7.00 | COc1cc2nccc(Oc3ccc(NC(=O)c4ncc(C)n(-c5ccc(F)cn5)c4=O)cc3F)c2nc1OC [Compound 219, N-[4-[(6,7-Dimethoxy-1,5-naphthyridin-4-yl)oxy]-3-fluorophenyl]-4-(5-fluoropyridin-2-yl)-5-methyl-3-oxopyrazine-2-carboxamide]
16 | 6.00 to 6.52 | ≥ 7.00 | COc1cc2nccc(Oc3ccc(NC(=O)c4c(C)n(C)cc(-c5ccc(F)cn5)c4=O)cc3)c2nc1OC [Compound 72, N-[4-[(6,7-Dimethoxy-1,5-naphthyridin-4-yl)oxy]phenyl]-5-(5-fluoropyridin-2-yl)-1,2-dimethyl-4-oxopyridine-3-carboxamide]
17 | 6.00 to 6.52 | 6.00 to 6.52 | COc1cnc2c(Oc3ccc(NC(=O)c4cc(C(C)=O)c(C)n(-c5ccoc5)c4=O)cc3F)ccnc2c1 [Compound 240, 5-Acetyl-N-[3-fluoro-4-[(7-methoxy-1,5-naphthyridin-4-yl)oxy]phenyl]-1-(furan-3-yl)-6-methyl-2-oxopyridine-3-carboxamide]
